Assays:
diabetic mice = details: cited from earlier work
neurons [1] = details: cited from earlier work; for effect on mitochondrial function / bioenergetics: neurons
neurons [2] = details: in vitro; cited from earlier work
[3] = Stability in acidic medium, monitored by HPLC; format: physicochemical; details: 0.1 N aq. HCl/MeOH (2/1 v/v), room temperature
Procedure: A sample of a test compound (1.2 mg) was dissolved in 0.1 N aq. HCl/MeOH (2/1 v/v, 4 mL) at room temperature. The degradation of the test compound was monitored by HPLC. The percentage of the test compound remaining was calculated using the peak area % in HPLC.

[4] = tested on: rat streptozotocin induced diabetes model for painful diabetic neuropathy; assay: Streptozotocin-induced rat model of painful diabetic neuropathy, Von Frey measurement for allodynia; format: in vivo; details: STZ 60 mg/kg IV, oral QD dosing started on Day 10
Procedure: A streptozotocin-induced rat model was used to test the effectiveness of KU-596 (T0) and several of the instant compounds in a model of painful diabetic neuropathy. The study rats were allowed to accliminate to the Von Frey apparatus for one day prior to the initial Von Frey measurement. A baseline Von Frey measurement, a body weight measurement, and blood glucose level measurements were conducted one day before the intravenous administration of streptozotocin to induce diabetes. […] Each of the animals in a treatment group was dosed with either the vehicle or a therapeutic agent orally. Treatment was continued until euthanasia approximately one to two weeks later.
Streptozotocin was injected into rats to induce diabetes after a baseline Von Frey measurement for allodynia was collected. Oral administration of each test drug (Compound T0 (KU-596), FIG. 1A; Compound T2, FIG. 1B, and Compound T1, FIG. 1C) was started on Day 10 after another Von Frey measurement.

[5] = target: Hsp90 C-terminus nucleotide binding pocket; details: low affinity; Marcu, et al., 2000; cited from earlier work
[6] = 22 hours (footnote *, printed in the 24 h line)

Compound | effect on symptoms of DPN / neuropathy in diabetic mice (diabetic mice) | effect on mitochondrial function / bioenergetics (neurons [1]) | effect on expression of inflammatory markers (neurons [1]; diabetic neurons) | protection of neurons from hyperglycemic conditions (neurons [2]) | percentage of test compound remaining (HPLC peak area %) ([3]; 0 h) | percentage of test compound remaining (HPLC peak area %) ([3]; 4 h) | percentage of test compound remaining (HPLC peak area %) ([3]; 8 h) | percentage of test compound remaining (HPLC peak area %) ([3]; 12 h) | percentage of test compound remaining (HPLC peak area %) ([3]; 16 h) | percentage of test compound remaining (HPLC peak area %) ([3]; 20 h) | percentage of test compound remaining (HPLC peak area %) ([3]; 24 h) | activity in model of painful diabetic neuropathy relative to T0 (KU-596), Von Frey measurement [4] | percentage of test compound remaining (HPLC peak area %) [3, 6] | IC50 [5]
CO[C@@H]1[C@@H](O)[C@@H](O)[C@H](Oc2ccc3cc(NC(C)=O)c(=O)oc3c2C)OC1(C)C [KU-32] | significant activity in reversing established symptoms of DPN in diabetic mice | improve mitochondrial bioenergetics |  |  |  |  |  |  |  |  |  |  |  | 
CO[C@@H]1[C@@H](O)[C@@H](O)C(Oc2ccc(CCNC(C)=O)c(-c3cccc(F)c3)c2)OC1(C)C (stereo partly drawn) [KU-596, N-(2-(5-(((3R,4S,5R)-3,4-dihydroxy-5-methoxy-6,6-dimethyltetra-hydro-2H-pyran-2-yl)oxy)-3′-fluoro-[1,1′-biphenyl]-2-yl)ethyl)-acetamide] | alleviate symptoms of neuropathy in diabetic mice | improve impaired mitochondrial function in neurons | reduce the expression of inflammatory markers in diabetic neurons | protect neurons from hyperglycemic conditions in vitro |  |  |  |  |  |  |  |  |  | 
CO[C@@H]1[C@@H](O)[C@@H](O)[C@H](Oc2ccc(CCNC(C)=O)c(-c3cccc(F)c3)c2)OC1(C)C [T0, reference compound] |  |  |  |  | 100.0% | 96.7 ± 1.4% | 93.4 ± 1.7% | 90.5 ± 2.3% | 87.3 ± 2.9% | 83.9 ± 4.1% | 81.8 ± 4.2% |  |  | 
CC(=O)NCCc1ccc(O[C@@H]2O[C@@H](C)[C@H](O)[C@@H](O)[C@H]2O)cc1-c1cccc(F)c1 [T1] |  |  |  |  | 100.0% | 101.1% | 100.1% | 100.5% | 100.4% | 100.3% | 100.4% | comparable to slightly better activity |  | 
CO[C@@H]1[C@@H](O)[C@@H](O)[C@H](Oc2ccc(CCNC(C)=O)c(-c3cccc(F)c3)c2)O[C@H]1C [T2] |  |  |  |  | 100.0% | 99.9% | 99.5% | 99.8% | 100.2% | 99.9% |  | comparable to slightly better activity | 100.2* % | 
CC(=O)NCCc1ccc(O[C@@H]2OC(C)(C)[C@H](O)[C@@H](O)[C@H]2O)cc1-c1cccc(F)c1 [T3] |  |  |  |  | 100.0% | 98.1% | 96.1% | 94.1% | 92.2% | 90.2% | 88.3% |  |  | 
CC(=O)NCCc1ccc(O[C@@H]2OC(C)(C)[C@H](OC(F)F)[C@@H](O)[C@H]2O)cc1-c1cccc(F)c1 [T6] |  |  |  |  | 100.0% | 99.1% | 99.0% | 97.6% | 96.6% | 96.0% | 95.7% |  |  | 
CC(=O)NCCc1ccc(O[C@@H]2OC(C)(C)[C@H](OCc3ccccc3)[C@@H](O)[C@H]2O)cc1-c1cccc(F)c1 [T7] |  |  |  |  | 100.0% | 93.3% | 85.6% | 78.8% | 71.5% | 65.5% | 61.7% |  |  | 
CNC(=O)CCc1ccc(O[C@@H]2O[C@@H](C)[C@H](OC)[C@@H](O)[C@H]2O)cc1-c1cccc(F)c1 [T11] |  |  |  |  | 100.0% | 100.2% | 100.3% | 100.6% | 100.9% | 101.4% | 102.1% |  |  | 
CO[C@@H]1[C@@H](O)[C@@H](O)[C@H](Oc2ccc(C(F)(F)CNC(C)=O)c(-c3cccc(F)c3)c2)OC1(C)C [T12] |  |  |  |  | 100.0% | 97.2% | 95.5% | 93.7% | 92.3% | 90.6% |  |  | 89.9* % | 
CO[C@@H]1[C@@H](O)[C@@H](O)[C@H](Oc2ccc(C(F)(F)CNC(C)=O)c(-c3cccc(F)c3)c2)O[C@H]1C [T13] |  |  |  |  | 100.0% | 99.3% | 99.7% | 100.3% | 99.5% | 99.7% | 99.3% |  |  | 
CC(=O)NCCc1ccc(O[C@@H]2O[C@@H](C)[C@@H](O)[C@@H](O)[C@@H]2O)cc1-c1cccc(F)c1 [T15] |  |  |  |  | 100.0% | 99.9% | 99.0% | 98.5% | 97.9% | 97.0% | 96.5% |  |  | 
CO[C@@H]1[C@@H](O)[C@@H](O)[C@@H](Oc2ccc(CCNC(C)=O)c(-c3cccc(F)c3)c2)OC1(C)C [T20] |  |  |  |  | 100.0% | 97.7% | 94.8% | 91.9% | 89.2% | 86.8% | 84.4% |  |  | 
CC(=O)NCCc1ccc(O[C@H]2O[C@H](C)[C@@H](O)[C@H](O)[C@@H]2O)cc1-c1cccc(F)c1 [T54] |  |  |  |  | 100.0% | 100.4% | 100.2% | 101.0% | 101.1% | 101.3% | 101.2% |  |  | 
CNC(=O)CCc1ccc(O[C@@H]2OC(C)(C)[C@H](OC)[C@@H](O)[C@H]2O)cc1-c1cccc(F)c1 [T57] |  |  |  |  | 100.0% | 97.9% | 93.4% | 90.3% | 86.4% | 82.5% | 79.3% |  |  | 
CC(=O)NCCc1ccc(O[C@@H]2O[C@@H](CO)[C@H](O)[C@@H](O)[C@H]2O)cc1-c1cccc(F)c1 [T60] |  |  |  |  | 100.0% | 97.6% | 97.6% | 97.5% | 97.2% | 98.0% | 97.4% |  |  | 
CO[C@@H]1[C@@H](OC(N)=O)[C@@H](O)[C@H](Oc2ccc3c(O)c(NC(=O)c4ccc(O)c(CC=C(C)C)c4)c(=O)oc3c2C)OC1(C)C [novobiocin] |  |  |  |  |  |  |  |  |  |  |  |  |  | ~700 µM
